Measured values reported in patent US4455315A, “N-(Difluoromethoxy substituted phenyl)-dichloromaleimides used in agricultural and horticultural fungicidal methods” (Showa Denko Kabushiki Kaisha, priority 1980, dated 1984).

Key:
[1] = tested on: potted young oranges (variety: Unshu); test: Phytotoxicity of treating compound, Citrus Scab test; details: 250 ppm
Method: (§1) The resulting solution is sprayed, in an amount corresponding to 600 l/10a per pot, on potted young oranges (variety: Unshu) immediately after fresh leaves are unfolded. After one day, the potted young oranges are inoculated with Elsinoe fawcetti, by spraying a suspension of crushed hyphae thereof containing 50 crushed hyphae per microscopic field (magnification: X100). The suspension is prepared by culturing Elsinoe fawcetti on potato medium at a temperature of 25° C. for 30 days to form hyphae and suspending it in sterilized water.
(§2) After inoculation, the potted young oranges are allowed to stand at a temperature of 25° C. in a moist room for two days and then transferred to a greenhouse. Twenty-three days after inoculation, the leaf infested by citrus scab is examined, i.e., number of pathologic spots on a leaf is examined and the numbers of leaves infested by cirtrus scab are counted. Then, an infestation rate is calculated according to the following equation:

[2] = tested on: potted potatoes (variety: Chippewa); details: 500 ppm
Phytophthora infestans = type: in vivo; details: 500 ppm
peroral acute toxicity = details: in vivo, po, four-week-old male mouse
TA-98 = test: mutagenicity test (Ames test), TA-98; type: cell-based
Alternaria kikuchiana [3] = test: Pear Black Spot-controlling Test; details: 500 ppm, six days after inoculation
Method: Pear Black Spot (Alternaria kikuchiana)-controlling Test
(§3) The resulting solution is sprayed on unfolded leaves of potted young pears (variety: Niju-seiki) in an amount corresponding to 600 l/10a per pot. After air-drying, the unfolded leaves are inoculated with Alternaria kikuchiana, by spraying a suspension of conidia thereof containing 30 conidia per microscopic field (magnification: X200).
(§4) After inoculation, the potted young pears are allowed to stand at a temperature of 27° C. in a moist room for one day and then transferred to a greenhouse. Six days after inoculation, the leaf area infested by pear black spot, i.e., the area of pathologic spots on a leaf is examined on 5 unfolded leaves per pot and an average infestation rate is then calculated.

Alternaria mali = test: Apple Alternaria Leaf Spot-controlling Test; type: in vivo; details: 500 ppm, six days after inoculation
[4] = tested on: potted pears (variety: Niju-seiki); test: Test of Phytotoxicity to Pears; type: in vivo, pear; details: 75% Wettable Powders, two weeks
Description: Test of Phytotoxicity to Pears
After air-drying, the potted pears are allowed to stand in a greenhouse.

Diaporthe citri [5] = test: Test of Residual Activity against Citrus Melanose; type: in vivo; details: 1000 ppm, 23 mm/hr of rain
[6] = tested on: potted apples (variety: Star King); test: Phytotoxicity of treating compound, Apple Scab test; details: 500 ppm
TA-100 = test: mutagenicity test (Ames test), TA-100; type: cell-based
Elsinoe fawcetti = test: Citrus Scab-controlling Test; details: 250 ppm
Method: as §1, §2
Infestation Rate=(Σnf/3N)×100
wherein n is the number of the infested leaves, f is an infestation index and N is the total number of the examined leaves. The infestation index is as follows.
For comparison, the above test is also carried out using a reference compound (benomyl) and plain water.

[7] = tested on: potted apples (variety: Star King); test: Test of Phytotoxicity to Apples; details: 75% Wettable Powders, dilution × 750, 600 l/10 a, two weeks
Method: The resulting solution of wettable powders is sprayed, in an amount corresponding to 600 l/10a per pot, on potted apples (variety: Star King) immediately after fresh leaves are unfolded. After air-drying, the potted apples are allowed to stand in a greenhouse. Two weeks after the spray treatment, the phytotoxicity, of the compound according to the present invention, to the potted apples is examined.
For comparison, the above test is also carried out using a reference compound (fluoroimide) and plain water.

[8] = tested on: Pseudoperonospora cubensis; test: Cucumber Downy Mildew-controlling Test; type: in vivo; details: 1000 ppm, five days after inoculation
Description: Cucumber Downy Mildew (Pseudoperonospora cubensis)-controlling Test […] After one day, the cucumbers are inoculated with Pseudoperonospora cubensis, by spraying a suspension thereof containing 30 spores per microscopic field (magnification: […]), which are collected from the leaves infested by cucumber downy mildew. […] In this test, one cucumber is planted in each pot and three pots are used.

[9] = tested on: potted young pears (variety: Niju-seiki); test: Phytotoxicity of treating compound, Pear Black Spot test; details: 500 ppm, damaged area on leaves
Method: as §3, §4
*The phytotoxicity of the treating compound is evaluated according to the

[10] = tested on: potted young oranges (variety: Unshu); test: Phytotoxicity of treating compound, Citrus Melanose test; details: 500 ppm
Venturia inaequalis = test: Apple Scab-controlling Test; type: in vivo; details: 500 ppm
ichthyotoxicity = details: killifish, in vivo; read-out: Tlm48
Alternaria kikuchiana [11] = test: Spore-germination Inhibiting Test; type: cell-based; details: 10 ppm, 27° C., 20 hours
Method: Spore-germination Inhibiting Test for Alternaria kukuchiana An apricot medium is inoculated with Alternaria kikuchiana and incubated at a temperature of 27° C. for 7-10 days to form conidia on the medium. […] 0.02 Ml of the prepared spore suspension containing the compound according to the present invention is dropped on a slide glass and incubated at a temperature of 27° C. under moist conditions for 20 hours. Thereafter, whether or not the spores germinate is examined under a microscope and the spore-germination rate is then calculated.

[12] = tested on: potted young oranges (variety: Unshu); test: Phytotoxicity of treating compound, residual activity test; details: 1000 ppm, 23 mm/hr of rain
Diaporthe citri [13] = test: Citrus Melanose-controlling Test; type: in vivo; details: 500 ppm
[14] = index 3 = 51-100% infested area

In the case of `O=C1C(Cl)=C(Cl)C(=O)N1c1ccc(OC(F)F)cc1` [compound 3, 2,3-dichloro-N-(p-difluoromethoxyphenyl)maleimide], the “Phytotoxicity of Treating Compound” value [1] was “- (0%)”, the “Phytotoxicity of Treating Compound” value [2] was “- (0%)” and the “Infested Leaves (%)” value (Phytophthora infestans; six days after inoculation) was 0%. For the same compound, the “Infestation Rate” value (Phytophthora infestans; six days, (Σnf/3N)×100) was 0, the “Number of Leaves Showing Each Infestation Index: 0” value (Phytophthora infestans; index 0 = 0% infested area) was 20 leaves and the “Number of Leaves Showing Each Infestation Index: 1” value (Phytophthora infestans; index 1 = 1-25% infested area) was 0 leaves. For the same compound, the “Number of Leaves Showing Each Infestation Index: 2” value (Phytophthora infestans; index 2 = 26-50% infested area) was 0 leaves, the “Number of Leaves Showing Each Infestation Index: 3” value (Phytophthora infestans; [14]) was 0 leaves and the LD50 (peroral acute toxicity) was > 300 mg/kg. For the same compound, the “Ames test TA-98” value (TA-98) was “negative”, the “Average Infestation Rate (%) (Based on infested area)” value (“Average Infestation Rate (%)” below) (Alternaria kikuchiana [3]) was 2% and the “Average Infestation Rate (%)” value (Alternaria mali) was 0%. The “Phytotoxicity of Treating Compound” value ([4]; dilution × 500, 600 l/10 a) was “- (0%)”, the “Phytotoxicity of Treating Compound” value ([4]; dilution × 750, 600 l/10 a) was “- (0%)” and the “Infested Leaves (%)” value (Diaporthe citri [5]; 24 days after inoculation) was 0%. The “Infestation Rate” value (Diaporthe citri [5]; 24 days, (Σnf/4N)×100) was 0, the “Number of Leaves Showing Each Infestation Index: 0” value (Diaporthe citri [5]; index 0 = 0-25% infested area) was 187 leaves and the “Number of Leaves Showing Each Infestation Index: 1” value (Diaporthe citri [5]; index 1 = 26-50% infested area) was 0 leaves. For the same compound, the “Number of Leaves Showing Each Infestation Index: 2” value (Diaporthe citri [5]; index 2 = 51-75% infested area) was 0 leaves, the “Number of Leaves Showing Each Infestation Index: 3” value (Diaporthe citri [5]; index 3 = 76-90% infested area) was 0 leaves and the “Number of Leaves Showing Each Infestation Index: 4” value (Diaporthe citri [5]; index 4 = 91-100% infested area) was 0 leaves. The “Phytotoxicity of Treating Compound” value [6] was “- (0%)”, the “Ames test TA-100” value (TA-100) was “negative” and the “Infested Leaves (%)” value (Elsinoe fawcetti; 23 days after inoculation) was 0.6%. The “Infestation Rate” value (Elsinoe fawcetti; 23 days, (Σnf/3N)×100) was 0.2, the “Number of Leaves Showing Each Infestation Index: 0” value (Elsinoe fawcetti; index 0 = 0 spots per leaf) was 311 leaves and the “Number of Leaves Showing Each Infestation Index: 1” value (Elsinoe fawcetti; index 1 = 1-3 spots per leaf) was 2 leaves. The “Number of Leaves Showing Each Infestation Index: 2” value (Elsinoe fawcetti; index 2 = 4-10 spots per leaf) was 0 leaves, the “Number of Leaves Showing Each Infestation Index: 3” value (Elsinoe fawcetti; index 3 = ≥11 spots per leaf) was 0 leaves and the “Phytotoxicity of Treating Compound” value [7] was “- (0%)”. The “Average Infestation Rate (%)” value [8] was 0%, the “Phytotoxicity of Treating Compound” value [9] was “- (0%)” and the “Phytotoxicity of Treating Compound” value [10] was “- (0%)”. The “Infested Leaves (%)” value (Venturia inaequalis; seven days after inoculation) was 0%, the “Infestation Rate” value (Venturia inaequalis; seven days, (Σnf/3N)×100) was 0 and the “Number of Leaves Showing Each Infestation Index: 0” value (Venturia inaequalis; index 0 = 0% infested area) was 25 leaves. The “Number of Leaves Showing Each Infestation Index: 1” value (Venturia inaequalis; index 1 = 1-25% infested area) was 0 leaves, the “Number of Leaves Showing Each Infestation Index: 2” value (Venturia inaequalis; index 2 = 26-50% infested area) was 0 leaves and the “Number of Leaves Showing Each Infestation Index: 3” value (Venturia inaequalis; [14]) was 0 leaves. For the same compound, the LC50 at 48 h (ichthyotoxicity) was > 10 mg/L, the “Spore-germination Rate (%)” value (Alternaria kikuchiana [11]) was 0% and the “Phytotoxicity of Treating Compound” value [12] was “- (0%)”. The “Infested Leaves (%)” value (Diaporthe citri [13]; 24 days after inoculation) was 0%, the “Infestation Rate” value (Diaporthe citri [13]; 24 days, (Σnf/4N)×100) was 0 and the “Number of Leaves Showing Infestation Index 0” value (Diaporthe citri [13]; index 0 = 0-25% infested area, 24 days) was 271 leaves. The “Number of Leaves Showing Infestation Index 1” value (Diaporthe citri [13]; index 1 = 26-50% infested area, 24 days) was 0 leaves, the “Number of Leaves Showing Infestation Index 2” value (Diaporthe citri [13]; index 2 = 51-75% infested area, 24 days) was 0 leaves and the “Number of Leaves Showing Infestation Index 3” value (Diaporthe citri [13]; index 3 = 76-90% infested area, 24 days) was 0 leaves. The “Number of Leaves Showing Infestation Index 4” value (Diaporthe citri [13]; index 4 = 91-100% infested area, 24 days) was 0 leaves.
